Assay [1] has as its system MCF7. The experiment in a line: Antitumor activity against Homo sapiens (human) MCF7 cells assessed as cell growth inhibition after 48 hr by MTT assay. The note with it: for IC50: mcf7; for pIC50: Homo sapiens, MCF7, 48 h, read-out: IC50. In kind it is functional, cell-based. For orientation: Tetrazolium assays rely on reduction of a dye to a coloured formazan, in cell work by metabolically active cells.

The subject of assay [2] is HepG2. The experiment in a line: Antitumor activity against Homo sapiens (human) HepG2 cells assessed as cell growth inhibition after 48 hr by MTT assay. Format: functional, cell-based. The note with it: for IC50: hepg2; for pIC50: Homo sapiens, HepG2, 48 h, read-out: IC50.
The subject of assay [3] is HCT-116. The experiment in a line: Antitumor activity against Homo sapiens (human) HCT116 cells assessed as cell growth inhibition after 48 hr by MTT assay. In kind it is functional, cell-based. The note with it: for IC50: hct-116; for pIC50: Homo sapiens, HCT-116, 48 h, read-out: IC50.
The test system of assay [4] is A549. Kind of assay: Antitumor activity against Homo sapiens (human) A549 cells assessed as cell growth inhibition after 48 hr by MTT assay. Format: functional, cell-based. The note with it: for IC50: a549; for pIC50: Homo sapiens, A549, 48 h, read-out: IC50.
The test system of assay [5] is MCF7. Kind of assay: Ratio of doxorubicin IC50 to compound IC50 for Homo sapiens (human) MCF7 cells. In kind it is functional.
Assay [6] concerns HepG2. Kind of assay: Ratio of doxorubicin IC50 to compound IC50 for Homo sapiens (human) HepG2 cells. In kind it is functional.

pIC50: −log10 of the molar value.

By pIC50 is commonly meant −log10 of the IC50, conventionally taken in molar units.

Turning to `C[C@@H](CC[C@@]1(O)O[C@H]2C[C@H]3[C@@H]4CC[C@@H]5C[C@@H](O[C@@H]6O[C@H](CO)[C@@H](O)[C@H](O)[C@H]6O[C@@H]6O[C@H](CO)[C@H](O)[C@H](O)[C@H]6O)CC[C@]5(C)[C@H]4CC[C@]3(C)[C@H]2[C@@H]1C)CO[C@@H]1O[C@H](CO)[C@@H](O)[C@H](O)[C@H]1O`, the IC50 entry in assay [1], in assay [2], in assay [3] and in assay [4] was “Not Active” in each case.
For `C[C@@H]1CC[C@@]2(OC1)O[C@H]1C[C@H]3[C@@H]4CC[C@@H]5C[C@@H](O[C@@H]6O[C@H](CO)[C@H](O[C@@H]7O[C@H](CO)[C@@H](O)[C@H](O[C@@H]8O[C@H](CO)[C@@H](O)[C@H](O)[C@H]8O)[C@H]7O[C@@H]7O[C@H](CO)[C@H](O)[C@H](O)[C@H]7O[C@@H]7OC[C@@H](O)[C@H](O)[C@H]7O)[C@H](O)[C@H]6O)CC[C@]5(C)[C@H]4CC[C@]3(C)[C@H]1[C@@H]2C` [Desmettianoside C], the “growth inhibition (GI)” value in assay [1], in assay [2], in assay [3] and in assay [4] was “Dose-dependent effect” in each case. For the same molecule, the negative logarithm of the IC50 (pIC50) was 5.59 in assay [1], 5.96 in assay [2], 5.62 in assay [3] and 4.99 in assay [4]. Also, the “Ratio IC50” value in assay [5] was found to be 2.
Regarding `COc1cccc2c1C(=O)c1c(O)c3c(c(O)c1C2=O)C[C@@](O)(C(=O)CO)C[C@@H]3O[C@H]1C[C@H](N)[C@H](O)[C@H](C)O1` [DOXORUBICIN], the results for the negative-log IC50 (pIC50) in assay [2], in assay [3] and in assay [4] were 5.13, 5.16 and 6.08, respectively.
Turning to `C[C@@H]1CC[C@@]2(OC1)O[C@H]1C[C@H]3[C@@H]4CC[C@@H]5C[C@@H](O[C@@H]6O[C@H](CO)[C@@H](O)[C@H](O)[C@H]6O[C@@H]6O[C@H](CO)[C@H](O)[C@H](O)[C@H]6O)CC[C@]5(C)[C@H]4CC[C@]3(C)[C@H]1[C@@H]2C`, the “growth inhibition (GI)” value in assay [1], in assay [2], in assay [3] and in assay [4] was “Dose-dependent effect” in each case. Also, the pIC50 in assay [1] is 5.40; in assay [2], 5.46; in assay [3], 5.36; in assay [4] it was 4.78. In assay [6], the “Ratio IC50” value was found to be 2.
As to `CO[C@]1(CC[C@H](C)CO[C@@H]2O[C@H](CO)[C@@H](O)[C@H](O)[C@H]2O)O[C@H]2C[C@H]3[C@@H]4CC[C@@H]5C[C@@H](O[C@@H]6O[C@H](CO)[C@@H](O)[C@H](O)[C@H]6O[C@@H]6O[C@H](CO)[C@H](O)[C@H](O)[C@H]6O)CC[C@]5(C)[C@H]4CC[C@]3(C)[C@H]2[C@@H]1C`, the IC50 result in assay [1], in assay [2], in assay [3] and in assay [4] was “Not Active” throughout.

The values above are taken from ChEMBL document CHEMBL3046560, “Steroidal saponins from the leaves of Yucca de-smetiana and their in vitro antitumor activity: structure activity relationships through a molecular modeling approach” (Med Chem Res, 2013).
